Patent publication US8158380B2, “Imaging agents for protein misfolding” (New York University, priority 2007, dated 2012)

Target: amyloid plaques (Homo sapiens, UniProt P05067)
Test: In vivo staining after intraperitoneal injection in PS/APP Tg mice, sections viewed under fluorescent microscope
Parameters: from tissue; host or cells: brain of PS/APP (APP/PS1) transgenic mice, as sections or in vivo
Protocol: Methods used: Five groups each of 6-month-old PS/APP Tg mice were tested (which have abundant amyloid plaques) with the compounds of the present invention. The mice received an intraperitoneal injection of compounds 23, 8 or 8F (30 μg/gram). They were sacrificed 24 hours later by ip injection of sodium pentobarbital (150 mg/kg). All animals were transcardially perfused with 20 ml of 0.1 M phosphate buffered saline (pH 7.4) with the addition of heparin followed by 80 ml of 4% formaldehyde in 0.1 M phosphate buffer. The brain was removed from the skull, cryoprotected using increasing concentrations of sucrose, and cut into serial 40-μm-thick coronal section on a freezing microtome (Leica SM2400, Nussloch, Germany). Anti-amyloid β immunohistochemistry was performed on free-floating sections, using our previously published protocols^20-23. In brief, endogenous peroxidase activity was quenched in a bath with 0.3% H2O2 for 30 min. Unspecific staining was blocked by incubation in the blocking solution provided as a part of “Mouse on mouse” kit (Vector Elite staining kit, Vector Laboratories, Burlingame, Calif.). This procedure allows for detection of antigens in murine tissue using mouse mAb avoiding substantial background. Concentration of all mAbs was 0.25 mg/ml with the total concentration of protein in a stock solution of 1 mg/ml as assessed by a Coomasie colorimetric assay. 1:2000 dilution of the stock solution was used. Primary antibodies were applied for 30 minutes followed by thorough washing and the anti-mouse IgG biotinylated secondary antibody according to the kit manufacturer instruction. For fluorescent microscopy sections were incubated with streptavidin conjugated with Cy3 (1:400; Sigma, St. Louis Mo.) whereas for light microscopy they were incubated with avidin-horseradish peroxidase complex and developed using 3,3′-diaminobenzidine kit with nickel ammonium sulfate (Vector Laboratories, Burlingame, Calif.). Following immunostaining, sections were carried on slides, air-dried, and cover-slipped. […]

[1] = AD mice, in vivo injection, sacrificed 24 hours after injection

Sequence of amyloid plaques (P05067 672-713 limits assumed): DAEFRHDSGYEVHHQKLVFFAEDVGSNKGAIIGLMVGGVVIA

COc1ccc2nc(/C=C/c3ccc(-c4ccc(F)cc4)cc3)ccc2c1 [compound 8F]
ability to cross the blood brain barrier [1]: able to cross the blood brain barrier
labeling of amyloid plaques in vivo [1]: label amyloid plaques in vivo
effectiveness in blood-brain barrier permeability and labeling amyloid plaques in tissue sections and in vivo (AD model transgenic mice): most effective
